Measurements from ChEMBL document CHEMBL1201862, “PubChem BioAssay data set” (2004).
Several values for one entry are separate records, joined by “and”; a condition that tells them apart may be missing. Identical values can stand only once.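 These data come from cells grown in 96-well plates and exposed to compound for 48 hours at five concentrations. GI50: concentration for 50% inhibition of growth.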 Activity calls are given as the source filed them. Cut-off read from the data, not from the text of the source: active = GI50 up to about 1.1 µM and inactive = higher.

Assays:
Test in all cases: NCI anticancer screen, dose series, 48 h
[1] = test system: DU-145
[2] = test system: HCC 2998
[3] = test system: HCT-116
[4] = test system: Hs-578T
[5] = test system: LOX IMVI
[6] = test system: MDA-MB-231
[7] = test system: MDA-MB-435
[8] = test system: MDA-N
[9] = test system: MOLT-4
[10] = test system: OVCAR-5
[11] = test system: PC-3
[12] = test system: SK-MEL-2
[13] = test system: SK-MEL-5
[14] = test system: SNB-75
[15] = test system: SW-620
[16] = test system: BT-549
[17] = test system: MCF7
[18] = test system: Malme-3M

SMILES	GI50 [1]	GI50 [2]	GI50 [3]	GI50 [4]	GI50 [5]	GI50 [6]	GI50 [7]	GI50 [8]	GI50 [9]	GI50 [10]	GI50 [11]	GI50 [12]	GI50 [13]	GI50 [14]	GI50 [15]	GI50 [16]	GI50 [17]	GI50 [18]
c1ccc(/N=C(\N2CCCCC2)N(CCN2CCCCC2)c2ccccc2)cc1	2.1 µM (inactive)	1.69 µM (inactive)	0.0736 µM (active)	0.944 µM (active)	0.622 µM (active)	1.39 µM (inactive)	1.51 µM (inactive)	0.718 µM (active)	0.279 µM (active)	1.82 µM (inactive)	0.53 µM (active)	1.76 µM (inactive)	1.36 µM (inactive)	2.28 µM (inactive)	1.8 µM (inactive)	–	–	–
Clc1ccc(CCn2ccc3ccccc32)c(Cl)c1	> 100 µM (inactive)	> 100 µM (inactive)	> 100 µM (inactive)	> 100 µM (inactive)	–	> 100 µM (inactive)	> 100 µM (inactive)	–	> 100 µM (inactive)	> 100 µM (inactive)	> 100 µM (inactive)	> 100 µM (inactive)	> 100 µM (inactive)	> 100 µM (inactive)	> 100 µM (inactive)	> 100 µM (inactive)	> 100 µM (inactive)	> 100 µM (inactive)
COc1ccc(Nc2nc(N)c(C(=O)c3c[nH]c4ccccc34)s2)cc1	2.2 µM (inactive)	–	0.92 µM (active)	–	2.01 µM (inactive)	9.91 µM (inactive)	0.161 µM (active)	0.31 µM (active)	0.478 µM (active)	3.13 µM (inactive)	2.15 µM (inactive)	3.98 µM (inactive)	1.3 µM (inactive)	1.57 µM (inactive)	1.65 µM (inactive)	2.43 µM (inactive)	1.03 µM (active)	3.44 µM (inactive)
OC1(CCc2ccccc2)COC(C(F)(F)F)(C(F)(F)F)C1 (configuration not stated)	> 100 µM (inactive)	> 100 µM (inactive)	> 100 µM (inactive)	> 100 µM (inactive)	> 100 µM (inactive)	> 100 µM (inactive)	> 100 µM (inactive)	> 100 µM (inactive)	> 100 µM (inactive)	> 100 µM (inactive)	> 100 µM (inactive)	> 100 µM (inactive)	> 100 µM (inactive)	> 100 µM (inactive)	> 100 µM (inactive)	–	> 100 µM (inactive)	> 100 µM (inactive)
O=C1c2ccccc2C2(c3ccc(Cl)cc3)N[C@H]3CCCC[C@@H]3N12 (some centres not stated)	> 100 µM (inactive)	–	60.1 µM (inactive)	59.2 µM (inactive)	> 100 µM (inactive)	> 100 µM (inactive)	> 100 µM (inactive)	> 100 µM (inactive)	36.7 µM (inactive)	–	> 100 µM (inactive)	–	> 100 µM (inactive)	> 100 µM (inactive)	> 100 µM (inactive)	> 100 µM (inactive)	–	–
Cn1c(=O)c2[nH]c(/N=N/N3CCN(CCO)CC3)nc2n(C)c1=O	> 100 µM (inactive)	–	> 100 µM (inactive)	> 100 µM (inactive)	> 100 µM (inactive)	> 100 µM (inactive)	> 100 µM (inactive)	> 100 µM (inactive)	> 100 µM (inactive)	> 100 µM (inactive)	> 100 µM (inactive)	> 100 µM (inactive)	> 100 µM (inactive)	–	> 100 µM (inactive)	18.8 µM (inactive)	> 100 µM (inactive)	> 100 µM (inactive)
COc1ccc2c(c1)-c1oc3ccccc3c(=O)c1CO2	40.1 µM (inactive)	46.5 µM (inactive)	28.8 µM (inactive)	–	21.6 µM (inactive)	36.3 µM (inactive)	25.6 µM (inactive)	23.4 µM (inactive)	28.1 µM (inactive)	> 100 µM (inactive)	31.9 µM (inactive)	26.3 µM (inactive)	17.4 µM (inactive)	31.6 µM (inactive)	28.2 µM (inactive)	37.3 µM (inactive)	36.9 µM (inactive)	55.8 µM (inactive)
CC(C)N(C(=O)C1(O)c2ccccc2C=Cc2ccccc21)C(C)C	17.9 µM (inactive)	–	17.5 µM (inactive)	45.9 µM (inactive)	–	15.7 µM (inactive)	30.1 µM (inactive)	19.3 µM (inactive)	23.7 µM (inactive)	14.4 µM (inactive)	15.5 µM (inactive)	17.1 µM (inactive)	16.3 µM (inactive)	–	17.3 µM (inactive)	18.8 µM (inactive)	17.3 µM (inactive)	17.6 µM (inactive)
CN(CC(=O)O)c1ncc2c(n1)-c1ccccc1OC2c1ccccc1 (configuration not stated)	> 100 µM (inactive)	–	–	> 100 µM (inactive)	> 100 µM (inactive)	> 100 µM (inactive)	> 100 µM (inactive)	> 100 µM (inactive)	29.2 µM (inactive)	> 100 µM (inactive)	61.1 µM (inactive)	87.7 µM (inactive)	> 100 µM (inactive)	43.6 µM (inactive)	> 100 µM (inactive)	–	> 100 µM (inactive)	> 100 µM (inactive)
N#CCCN(CCN(CCC#N)C(=O)Nc1ccccc1)C(=O)Nc1ccccc1	76.9 µM (inactive)	> 100 µM (inactive)	49.3 µM (inactive)	33.8 µM (inactive)	> 100 µM (inactive)	> 100 µM (inactive)	–	> 100 µM (inactive)	> 100 µM (inactive)	> 100 µM (inactive)	69.3 µM (inactive)	> 100 µM (inactive)	> 100 µM (inactive)	19.5 µM (inactive)	> 100 µM (inactive)	31 µM (inactive)	> 100 µM (inactive)	> 100 µM (inactive)
CC1(CO)COS(=O)OC1 (configuration not stated)	> 100 µM (inactive)	> 100 µM (inactive)	> 100 µM (inactive)	> 100 µM (inactive)	> 100 µM (inactive)	> 100 µM (inactive)	> 100 µM (inactive)	> 100 µM (inactive)	> 100 µM (inactive)	–	> 100 µM (inactive)	–	> 100 µM (inactive)	> 100 µM (inactive)	> 100 µM (inactive)	–	> 100 µM (inactive)	–
COc1ccc(CCc2ccc(O)c(C(=O)O)c2)cc1OC	> 100 µM (inactive)	> 100 µM (inactive)	65.5 µM (inactive)	> 100 µM (inactive)	7.5 µM (inactive)	57.8 µM (inactive)	> 100 µM (inactive)	> 100 µM (inactive)	59.2 µM (inactive)	> 100 µM (inactive)	> 100 µM (inactive)	> 100 µM (inactive)	98.9 µM (inactive)	79.6 µM (inactive)	> 10 µM (inactive)	–	> 100 µM (inactive)	> 100 µM (inactive)
O=C1OC(c2ccccc2)=N/C1=C\c1ccccc1	> 100 µM (inactive) and 59 µM (inactive)	> 100 µM (inactive) and 67.9 µM (inactive)	> 100 µM (inactive)	58.7 µM (inactive) and 36.7 µM (inactive)	17.1 µM (inactive) and 23.3 µM (inactive)	> 100 µM (inactive)	64 µM (inactive) and 56 µM (inactive)	44.7 µM (inactive)	28.2 µM (inactive) and 47 µM (inactive)	> 100 µM (inactive)	> 100 µM (inactive)	17.8 µM (inactive)	38.1 µM (inactive) and 29.4 µM (inactive)	66.8 µM (inactive) and 47.5 µM (inactive)	–	–	48.4 µM (inactive) and 96.6 µM (inactive)	–
CC1=C2c3ccccc3N(C(=O)/C=C/C(=O)O)[C@H]2[C@H]2C(=O)OC(=O)[C@H]2C1	> 10 µM (inactive)	> 10 µM (inactive)	> 10 µM (inactive)	> 10 µM (inactive)	–	> 10 µM (inactive)	> 10 µM (inactive)	> 10 µM (inactive)	> 10 µM (inactive)	> 10 µM (inactive)	> 10 µM (inactive)	> 10 µM (inactive)	> 10 µM (inactive)	> 10 µM (inactive)	> 10 µM (inactive)	–	> 10 µM (inactive)	> 10 µM (inactive)
CN(C)N1C(=O)C(=O)N(c2cccc3ccccc23)C1=O	> 10 µM (inactive)	> 10 µM (inactive)	> 10 µM (inactive)	> 10 µM (inactive)	> 10 µM (inactive)	> 10 µM (inactive)	> 10 µM (inactive)	> 10 µM (inactive)	> 10 µM (inactive)	> 10 µM (inactive)	> 10 µM (inactive)	> 10 µM (inactive)	> 10 µM (inactive)	> 10 µM (inactive)	> 10 µM (inactive)	–	> 10 µM (inactive)	> 10 µM (inactive)
CC12C3C4C1C1C2C3C41CO (configuration not stated)	> 100 µM (inactive)	–	> 100 µM (inactive)	–	> 100 µM (inactive)	> 100 µM (inactive)	> 100 µM (inactive)	> 100 µM (inactive)	> 100 µM (inactive)	> 100 µM (inactive)	–	> 100 µM (inactive)	> 100 µM (inactive)	34 µM (inactive)	> 100 µM (inactive)	–	> 100 µM (inactive)	–
N[C@]1(C(=O)O)C[C@@H]2C(Br)=NO[C@@H]2C1	> 100 µM (inactive)	> 100 µM (inactive)	56 µM (inactive)	> 100 µM (inactive)	–	> 100 µM (inactive)	> 100 µM (inactive)	–	> 100 µM (inactive)	> 100 µM (inactive)	> 100 µM (inactive)	> 100 µM (inactive)	> 100 µM (inactive)	> 100 µM (inactive)	> 100 µM (inactive)	> 100 µM (inactive)	> 100 µM (inactive)	> 100 µM (inactive)
CN(C)CC(CO)(CN(C)C)CN(C)C	> 100 µM (inactive)	–	> 100 µM (inactive)	–	–	–	–	> 100 µM (inactive)	> 100 µM (inactive)	> 100 µM (inactive)	> 100 µM (inactive)	–	> 100 µM (inactive)	> 100 µM (inactive)	> 100 µM (inactive)	> 100 µM (inactive)	> 100 µM (inactive)	> 100 µM (inactive)
